Laboratory results reported in patent publication US20240262822A1, “WDR5 INHIBITORS AND MODULATORS” (Vanderbilt University, priority 2021, published 2024).
Where two headings read alike, the source gives them in different places.

Tests used:
[1] = tested on: MV4:11 human cancer cell lines; test: Cellular viability / anti-proliferative activity, CellTiter-Glo, 5 day protocol; type: cell-based; conditions: 5 day incubation
Description: Anti-proliferative activity using MLL-harboring cell lines. MV-4-11 and K562 cells are grown in IMDM media supplemented with 10% FBS and 1% penicillin/streptomycin, Molm-13 cells are cultured in RPMI-1640 media supplemented with 10% FBS and 1% penicillin/streptomycin. Viability assays are performed by dispensing 200 cells at 7200 cells/mL into each well of an opaque 384-well plate and adding compounds at the indicated concentrations in a final volume of 32 μL and a final concentration of DMSO of 0.3% for all samples. A certain range of compound concentrations is made through a series of 2-fold dilutions starting 30 μM at the highest, total 22 dilutions. After a set incubation period, 5 day protocol, the viability of cells in each well is assessed using the CellTiter-Glo assay (Promega), read on a 96 Microplane Luminometer (Cytation 3, BioTek). Serial dilutions of each cell type are performed in all assays to generate standard curves and the final densities of cells are determined within the dynamic range of the instrument. GI50 values are calculated based on XLfit software (IDBS, Guildford, UK) with Sigmoidal Dose-Response Model. Each compound is tested in minimum of two replicates. Data are expressed as mean.

WDR5 = biological target: T1, WDR5 (Homo sapiens, UniProt P61964); test: Time Resolved-Fluorescence Energy Transfer (TR-FRET) competition assay, displacement of 10mer-Thr-FAM probe from His-tagged WDR5; type: binding; conditions: WDR5-His tag 2 nM, 10mer-Thr-FAM 150 nM, 60 minutes at room temperature
T1 construct: WDR5-His Tag (A23, residues 24-334) is expressed and purified in our lab; made in house
Text: Excess 10mer-Thr-FAM probe was utilized with His-tagged WDR5 in conjunction with a commercial anti-His antibody containing a Terbium label. The LanthaScreen™ Elite Tb-anti-HIS Antibody from ThermoFisher Scientific was used for this purpose. This Tb-anti-HIS has an excitation/emission of 340 nm and 490 nm, respectively. The 10mer-Thr-FAM probe when bound to WDR5 will undergo a FRET interaction with the Tb-anti-HIS and emit at 520 nm. […] WDR5-His Tag (A23, residues 24-334) is expressed and purified in our lab in sufficient quantities for screening. 10mer-Thr-FAM peptide is used at 150 nM. WDR5-His tag protein is used at 2 nM. A source plate is prepared using an Echo Liquid Handler, which distributes the compounds to the assay plate (white, flat-bottom; OptiPlate) in a 10-point, 5-fold dilution schemes with a top concentration of 5 μM, in a final volume of 20 μL. A final target (WDR5)/Tb-Ab concentration of 2 nM/1 nM is dispensed from appropriate stock solutions, respectively. The final DMSO concentration in each well of the assay plate is 1% or lower. The plate is covered, shielded from light, and incubated for 60 minutes at room temperature with rocking. 10mer-Thr-FAM and Anti-His terbium antibody fluorescence is then measured on a Biotek Cytation 3 at excitation wavelength of 340 nm, and emission wavelengths of 495 nm and 520 nm. Working buffer conditions contain 1× Phosphate Buffered Saline, 300 mM NaCl, 0.5 mM TCEP, 0.1% CHAPS, at pH 7.2. TR-FRET signal is plotted and IC50 and Ki values are calculated according to the formula of Wang Z. FEBS Lett (1996) 3, 245.
where […] is the concentration of the free inhibitor at 50% inhibition, [L]50 is the concentration of the free labeled ligand at 50% inhibition, [P]0 is the concentration of the free protein at 0% inhibition, Kd represents the dissociation constant of the FITC-MLL or 10mer-Thr-FAM probe for WDR5. Total fluorescence is also measured, to rule out compounds that are inherently fluorescent or able to act as quenchers in the assay. TR-FRET binding assay

[2] = Homo sapiens, MV4-11, 120 h, MV4;11 cells, read-out: GI50 for additional WDR5 inhibitor compounds on cellular proliferation of MV4;11 human cancer cell lines
[3] = read-out: Ki for additional WDR5 inhibitor compounds for Inhibition of WDR5 by TR-FRET assay
[4] = Homo sapiens, 120 h, MV4;11 cells, read-out: GI50 for additional WDR5 inhibitor compounds on cellular proliferation of MV4;11 human cancer cell lines
[5] = Homo sapiens, MV4-11, 120 h, MV4:11 cells, read-out: GI50 for representative compounds on cellular proliferation of MV4:11 human cancer cell lines
[6] = read-out: Ki for Exemplified Compounds for Inhibition of WDR5 by TR-FRET assay

| Compound | GI50 [1, 2] [nM] | Ki (WDR5; [3]) [nM] | GI50 [1, 5] [nM] | Ki (WDR5; [6]) [nM] | also measured |
| --- | --- | --- | --- | --- | --- |
| COc1cc(N(C)C)c2nccc(N3CCc4c(cc(Cn5ccnc5)cc4-c4cn(C)nc4C(F)(F)F)C3=O)c2c1 [Compound B-35] | 76 | < 0.02 | – | – | – |
| CCc1cc(C2CCOCC2)c2nccc(N3CCc4c(cc(Cn5ccnc5)cc4-c4cn(C)nc4C(F)(F)F)C3=O)c2c1 [Compound B-36] | 23 | < 0.02 | – | – | – |
| CNC(=O)c1cc(OC)cc2c(N3CCc4c(cc(Cn5ccnc5)cc4-c4cn(C)nc4C(F)(F)F)C3=O)ccnc12 [Compound B-42] | < 20 | – | – | – | – |
| CCc1cc(N2CCN(C3COC3)C(=O)C2)c2nc(C)cc(N3CCc4c(cc(Cn5ccnc5)cc4-c4cn(C)nc4C(F)(F)F)C3=O)c2c1 [Compound B-132] | < 20 | 0.03 | – | – | – |
| CCc1cc(C2CCOCC2)c2nc(C)cc(N3CCc4c(cc(Cn5ccnc5)cc4-c4cn(C)nc4C(F)(F)F)C3=O)c2c1 [Compound B-165] | 129 | 0.042 | – | – | – |
| CCc1cc(C(=O)NCCN(C)C)c2nccc(N3CCc4c(cc(Cn5ccnc5)cc4-c4cn(C)nc4C(F)(F)F)C3=O)c2c1 [Compound B-166] | – | 0.029 | – | – | GI50 [1, 4]: < 20 nM |
| COc1cc(N2C[C@H]3CN(C)C[C@H]3C2)c2nc(C)cc(N3CCc4c(cc(Cn5ccnc5)cc4-c4cn(C)nc4C(F)(F)F)C3=O)c2c1 [Compound B-197] | < 20 | 0.02 | – | – | – |
| COc1cc(C(=O)Nc2cn[nH]c2)c2nc(C)cc(N3CCc4c(cc(Cn5ccnc5)cc4-c4cn(C)nc4C(F)(F)F)C3=O)c2c1 [Compound B-201] | 23 | 0.023 | – | – | – |
| COc1cc(C(=O)NC2CN(C(=O)C3CCOCC3)C2)c2nccc(N3CCc4c(cc(Cn5ccnc5)cc4-c4cn(C)nc4C(F)(F)F)C3=O)c2c1 [Compound B-229] | 26 | < 0.02 | – | – | – |
| CCc1cc(N)c2nccc(N3CCc4c(cc(Cn5ccnc5)cc4-c4cn(C)nc4C(F)(F)F)C3=O)c2c1 [Compound B-230] | – | – | – | – | GI50 [1, 4]: 54 nM |
| CCc1cc(NC(C)=O)c2nccc(N3CCc4c(cc(Cn5ccnc5)cc4-c4cn(C)nc4C(F)(F)F)C3=O)c2c1 [Compound B-231] | < 20 | – | – | – | – |
| CCc1cc(NC(=O)CC2CN(C(=O)C3CCOCC3)C2)c2nccc(N3CCc4c(cc(Cn5ccnc5)cc4-c4cn(C)nc4C(F)(F)F)C3=O)c2c1 [Compound B-233] | 26 | < 0.02 | – | – | – |
| CCc1cc(C(=O)NC2CN(C(=O)c3ccncc3)C2)c2nccc(N3CCc4c(cc(Cn5ccnc5)cc4-c4cn(C)nc4C(F)(F)F)C3=O)c2c1 [Compound B-242] | – | < 0.02 | – | – | GI50 ([1]; MV4;11 cells, read-out: GI50 for additional WDR5 inhibitor compounds on cellular proliferation of MV4;11 human cancer cell lines): 29 nM |
| COc1cnc2cc(C)cc(N3CCc4c(cc(Cn5ccnc5C)cc4-c4cn(C)nc4C(F)(F)F)C3=O)c2c1 [Example 2, 2-(3-Methoxy-7-methylquinolin-5-yl)-7-((2-methyl-1H-imidazol-1-yl)methyl)-5-(1-methyl-3-(trifluoromethyl)-1H-pyrazol-4-yl)-3,4-dihydroisoquinolin-1(2H)-one] | – | – | < 20 | < 0.02 | – |
| CCc1cc(C(=O)NC)c2nccc(N3CCc4c(cc(Cn5ccnc5C)cc4-c4cn(C)nc4C(F)(F)F)C3=O)c2c1 [Example 5, 6-Ethyl-N-methyl-4-(7-((2-methyl-1H-imidazol-1-yl)methyl)-5-(1-methyl-3-(trifluoromethyl)-1H-pyrazol-4-yl)-1-oxo-3,4-dihydroisoquinolin-2(1H)-yl)quinoline-8-carboxamide] | – | – | < 20 | < 0.02 | – |
| CCc1cc(C(N)=O)c2nccc(N3CCc4c(cc(Cn5ccnc5C)cc4-c4cn(C)nc4C(F)(F)F)C3=O)c2c1 [Example 6, 6-Ethyl-4-(7-((2-methyl-11H-imidazol-1-yl)methyl)-5-(1-methyl-3-(trifluoromethyl)-1H-pyrazol-4-yl)-1-oxo-3,4-dihydroisoquinolin-2(1H)-yl)quinoline-8-carboxamide] | – | – | < 20 | < 0.02 | – |
| CCc1cc2c(N3CCc4c(cc(Cn5ccnc5)cc4-c4cn(C)nc4C(F)(F)F)C3=O)ccnc2c(=O)[nH]1 [Example 7, 4-(7-((1H-Imidazol-1-yl)methyl)-5-(1-methyl-3-(trifluoromethyl)-1H-pyrazol-4-yl)-1-oxo-3,4-dihydroisoquinolin-2(1H)-yl)-6-ethyl-1,7-naphthyridin-8(7H)-one and 7-((1H-imidazol-1-yl)methyl)-2-(6-ethyl-8-hydroxy-1,7-naphthyridin-4-yl)-5-(1-methyl-3-(trifluoromethyl)-1H-pyrazol-4-yl)-3,4-dihydroisoquinolin-1(2H)-one mixture] | – | – | 1990 | < 0.02 | – |
| CCc1cc2c(N3CCc4c(cc(Cn5ccnc5)cc4-c4cn(C)nc4C(F)(F)F)C3=O)ccnc2c(NC)n1 [Example 9, 7-((1H-Imidazol-1-yl)methyl)-2-(6-ethyl-8-(methylamino)-1,7-naphthyridin-4-yl)-5-(1-methyl-3-(trifluoromethyl)-1H-pyrazol-4-yl)-3,4-dihydroisoquinolin-1(2H)-one] | – | – | 102 | < 0.02 | – |
| CCc1cc2c(N3CCc4c(cc(Cn5ccnc5C)cc4-c4cn(C)nc4C(F)(F)F)C3=O)ccnc2c(OC)n1 [Example 10, 2-(6-Ethyl-8-methoxy-1,7-naphthyridin-4-yl)-7-((2-methyl-1H-imidazol-1-yl)methyl)-5-(1-methyl-3-(trifluoromethyl)-1H-pyrazol-4-yl)-3,4-dihydroisoquinolin-1(2H)-one] | – | – | < 20 | < 0.02 | – |
| CCc1cnc2c(c1)[C@@H](N1CCc3c(cc(Cn4ccnc4)cc3-c3cn(C)nc3C(F)(F)F)C1=O)CCO2 [Example 11, (S)-7-((1H-Imidazol-1-yl)methyl)-2-(6-ethyl-3,4-dihydro-2H-pyrano[2,3-b]pyridin-4-yl)-5-(1-methyl-3-(trifluoromethyl)-1H-pyrazol-4-yl)-3,4-dihydroisoquinolin-1(2H)-one] | – | – | < 20 | < 0.02 | – |
| COc1cc2c(N3CCc4c(cc(Cn5ccnc5)cc4-c4cn(C)nc4C(F)(F)F)C3=O)ccnc2c(OC)n1 [Example 12, 7-((1H-Imidazol-1-yl)methyl)-2-(6,8-dimethoxy-1,7-naphthyridin-4-yl)-5-(1-methyl-3-(trifluoromethyl)-1H-pyrazol-4-yl)-3,4-dihydroisoquinolin-1(2H)-one] | – | – | 42 | < 0.02 | – |
| CCc1cc(OC)c2nncc(N3CCc4c(cc(Cn5ccnc5)cc4-c4cn(C)nc4C(F)(F)F)C3=O)c2c1 [Example 13, 7-((1H-Imidazol-1-yl)methyl)-2-(6-ethyl-8-methoxycinnolin-4-yl)-5-(1-methyl-3-(trifluoromethyl)-1H-pyrazol-4-yl)-3,4-dihydroisoquinolin-1(2H)-one] | – | – | < 20 | < 0.02 | – |
| CCc1cc(OC)c2nncc(N3CCc4c(cc(Cn5ccnc5C)cc4-c4cn(C)nc4C(F)(F)F)C3=O)c2c1 [Example 14, 2-(6-Ethyl-8-methoxycinnolin-4-yl)-7-((2-methyl-1H-imidazol-1-yl)methyl)-5-(1-methyl-3-(trifluoromethyl)-1H-pyrazol-4-yl)-3,4-dihydroisoquinolin-1(2H)-one] | – | – | < 20 | < 0.02 | – |
